These results are taken from ChEMBL document CHEMBL5107949, “Design, synthesis, and antibacterial activity of N-(trifluoromethyl)phenyl substituted pyrazole derivatives” (RSC Med Chem, 2021).

≈ marks a conversion by molar mass, not a printed value.

Test [1] deals with Staphylococcus aureus. Briefly: Inhibition of RNA synthesis in Staphylococcus aureus ATCC 29213 at 8 times MIC preincubated for 30 mins followed by [3H]-uridine and measured after 30 mins by [3H]-uridine incorporation based beta scintillation counter analysis. In kind it is functional. The conditions noted are these: time 60 min; 1 h.
The subject of test [2] is Staphylococcus aureus. Briefly: Bactericidal activity against Staphylococcus aureus ATCC 700699 assessed as bacteria elimination at 4 times MIC and measured after 6 hrs by time-kill assay. In kind it is functional.
Test [3] has as its system Staphylococcus aureus. In words: Bactericidal activity against Staphylococcus aureus ATCC 700699 persisters assessed as log reduction in colony forming unit at 64 times MIC after 4 hrs by colony counting method. In kind it is functional, organism-based.
Test [4] deals with Enterococcus faecalis. In words: Antibacterial activity against Enterococcus faecalis clinical isolate 1091720 assessed as inhibition of bacterial growth by CLSI protocol based broth microdilution method. In kind it is functional. Background: In broth dilution the organism is exposed to a series of concentrations in liquid medium.
Test [5] concerns Enterococcus faecium. In words: Antibacterial activity against Enterococcus faecium clinical isolate 1088925 assessed as inhibition of bacterial growth by CLSI protocol based broth microdilution method. In kind it is functional.
Test [6] concerns Enterococcus faecalis. Briefly: Antibacterial activity against Enterococcus faecalis clinical isolate 1091563 assessed as inhibition of bacterial growth by CLSI protocol based broth microdilution method. In kind it is functional.
Test [7] relates to Staphylococcus aureus. Briefly: Antibacterial activity against Staphylococcus aureus clinical isolate 1088060 assessed as inhibition of bacterial growth by CLSI protocol based broth microdilution method. In kind it is functional.
The test system of test [8] is Staphylococcus aureus. Briefly: Antibacterial activity against Staphylococcus aureus clinical isolate 1088610 assessed as inhibition of bacterial growth by CLSI protocol based broth microdilution method. In kind it is functional.
Test [9] concerns Enterococcus faecalis. In words: Antibacterial activity against Enterococcus faecalis clinical isolate 1100440 assessed as inhibition of bacterial growth by CLSI protocol based broth microdilution method. In kind it is functional.
Test [10] deals with Staphylococcus aureus. In words: Antibacterial activity against Staphylococcus aureus clinical isolate 1088888 assessed as inhibition of bacterial growth by CLSI protocol based broth microdilution method. In kind it is functional.
Test [11] relates to Enterococcus faecium. Briefly: Antibacterial activity against Enterococcus faecium clinical isolate 1088168 assessed as inhibition of bacterial growth by CLSI protocol based broth microdilution method. In kind it is functional.
The test system of test [12] is Staphylococcus aureus. Briefly: Antibacterial activity against Staphylococcus aureus clinical isolate 1088626 assessed as inhibition of bacterial growth by CLSI protocol based broth microdilution method. In kind it is functional.
The subject of test [13] is Enterococcus faecalis. Briefly: Antibacterial activity against Enterococcus faecalis clinical isolate 1088051 assessed as inhibition of bacterial growth by CLSI protocol based broth microdilution method. In kind it is functional.
The subject of test [14] is Staphylococcus aureus. Briefly: Antibacterial activity against Staphylococcus aureus clinical isolate 1088105 assessed as inhibition of bacterial growth by CLSI protocol based broth microdilution method. In kind it is functional.
For test [15], the system named is Enterococcus faecium. In words: Antibacterial activity against Enterococcus faecium clinical isolate 1089544 assessed as inhibition of bacterial growth by CLSI protocol based broth microdilution method. In kind it is functional.
Test [16] relates to Staphylococcus aureus. Briefly: Antibacterial activity against Staphylococcus aureus clinical isolate 1089106 assessed as inhibition of bacterial growth by CLSI protocol based broth microdilution method. In kind it is functional.
The subject of test [17] is Staphylococcus aureus. In words: Antibacterial activity against Staphylococcus aureus clinical isolate 1088064 assessed as inhibition of bacterial growth by CLSI protocol based broth microdilution method. In kind it is functional.
Test [18] has as its system Enterococcus faecalis. Briefly: Antibacterial activity against Enterococcus faecalis clinical isolate 1094112 assessed as inhibition of bacterial growth by CLSI protocol based broth microdilution method. In kind it is functional.
Test [19] concerns Enterococcus faecium. Briefly: Antibacterial activity against Enterococcus faecium clinical isolate 1091282 assessed as inhibition of bacterial growth by CLSI protocol based broth microdilution method. In kind it is functional.
The test system of test [20] is Enterococcus faecium. Briefly: Antibacterial activity against Enterococcus faecium clinical isolate 1088228 assessed as inhibition of bacterial growth by CLSI protocol based broth microdilution method. In kind it is functional.
Test [21] relates to Staphylococcus aureus. In words: Inhibition of protein synthesis in Staphylococcus aureus ATCC 29213 at 8 times MIC preincubated for 30 mins followed by [3H]-leucine and measured after 40 mins by [3H]-leucine incorporation based beta scintillation counter analysis. The conditions noted are these: time 70.0 min. In kind it is functional.

For the molecule `CO[C@H]1/C=C/O[C@@]2(C)Oc3c(C)c(O)c4c(O)c(c(/C=N/N5CCN(C)CC5)c(O)c4c3C2=O)NC(=O)/C(C)=C\C=C\[C@H](C)[C@H](O)[C@@H](C)[C@@H](O)[C@@H](C)[C@H](OC(C)=O)[C@@H]1C` [RIFAMPIN], the “inhibition (INH)” value in test [1] is 76.3%.

As for GENTAMICIN, the Activity in test [2] is above 99.9%. In [3], the log(activity) is 1.

The MIC is the lowest concentration found to suppress growth. On to `Cc1onc(-c2ccccc2)c1C(=O)N[C@@H]1C(=O)N2[C@@H]1SC(C)(C)[C@@H]2C(=O)O` [OXACILLIN], for which the MIC is 64 µg/mL (≈ 159 µM) in test [4]; above 64 µg/mL in test [5]; 64 µg/mL (≈ 159 µM) in [6]; 0.5 µg/mL (≈ 1.25 µM) in test [7]; 64 µg/mL (≈ 159 µM) in test [8]; above 64 µg/mL in test [9]. Moreover, the MIC in [10] is above 64 µg/mL; in [11], above 64 µg/mL; in [12], 0.25 µg/mL (≈ 0.623 µM); in [13] it was 64 µg/mL (≈ 159 µM); in test [14], 0.25 µg/mL (≈ 0.623 µM); in [15], above 64 µg/mL. Besides, the MIC was 64 µg/mL (≈ 159 µM) in [16]; 64 µg/mL (≈ 159 µM) in test [17]; above 64 µg/mL in [18]; above 64 µg/mL in test [19]; above 64 µg/mL in test [20].

Broadly, the inhibition is the drop in the measured response relative to a control, in per cent. In turn, `CC(=O)NC[C@H]1CN(c2ccc(N3CCOCC3)c(F)c2)C(=O)O1` displayed an inhibition in test [21] of 70.7%.

For `C[C@@H](O)[C@H]1C(=O)N2C(C(=O)O)=C(S[C@@H]3CN[C@H](C(=O)N(C)C)C3)[C@H](C)[C@H]12` [MEROPENEM], the minimal inhibitory concentration (MIC) in test [4] was 8 µg/mL (≈ 20.9 µM); in test [5] it was above 128 µg/mL; in [6], 2 µg/mL (≈ 5.22 µM); in [7], 0.06 µg/mL (≈ 0.156 µM); in test [8], 4 µg/mL (≈ 10.4 µM); in test [9], 4 µg/mL (≈ 10.4 µM). Besides, the minimal inhibitory concentration (MIC) in [10] was 8 µg/mL (≈ 20.9 µM); in test [11] it was above 128 µg/mL; in [12], 0.06 µg/mL (≈ 0.156 µM); in test [13], 2 µg/mL (≈ 5.22 µM); in [14], 0.12 µg/mL (≈ 0.313 µM); in test [15], above 128 µg/mL. In addition, the MIC was 2 µg/mL (≈ 5.22 µM) in [16]; 4 µg/mL (≈ 10.4 µM) in [17]; 8 µg/mL (≈ 20.9 µM) in test [18]; above 128 µg/mL in [19]; above 128 µg/mL in [20].
